Measurements: patent US20100234238A1, “METHOD FOR PROFILING KINASE INHIBITORS” (Janssen Pharmaceutica N V, priority 2006, published 2010)

Test system: tyrosine kinase activity in xenograft tumor lysates
Assay: PAMCHIP96 (140-peptide array) profiling of xenograft tumor lysates in absence or presence of MTKI
Assay type: biochemical
Settings: 5 μM
Method: 100 mg of frozen tumor or tissue blocks, or sections, are lysed in 1 ml of M-PER buffer (PIERCE) containing phosphatase and protease inhibitors (HALT, PIERCE). The suspension is mixed using a ULTRA-TURRAX blender (IKA werke), and centrifuged twice for 10 minutes at 12 000×g. Supernatant lysates are filtered through a 0.2 micrometer filter (Anotop 0.2 μm anopore filter; Whatmann). Lysates are flash frozen in liquid nitrogen and stored at −80C.
Just prior to the PAMCHIP experiment, total protein content is quantitated in the lysates and lysates are diluted to 1 mg/ml in a total volume of 200 μl, with M-PER phosphatase and protease inhibitors (HALT, PIERCE). 10 μg of total lysate (corresponding to 10 μl) will be used per well on the PAMCHIP96.
To all 200 μl lysates 10 units of benzonase (Novagen) is added and lysates are further incubated for 30 min on ice and next centrifuged for 10 minutes at 12 000×g. The supernatant is then 1:1 diluted with compound or DMSO diluted to the appropriate concentration in water, and lysates are further incubated exactly 60 min on ice. Meanwhile, a PAMCHIP96 tyrosine peptide chip (PAMGENE) is blocked with 2% BSA (filtered through a 0.2 μm anopore filter; Whatmann) using the standard setting of a PAMSTATION96 (PAMGENE).
The composition of the kinase buffer is as follows: 1×ABL buffer (NEB), 0.5 mg/ml BSA (from 10 mg/ml NEB stock), 100 μM ATP (dissolved and diluted in 1×ABL buffer), 5 μg/ml PY20-FITC (ExAlpha Biologicals, azide-free preparation). A twofold concentrated kinase buffer is prepared chilled on ice, DMSO or compound is added as appropriate, and the solution is added 1:1 to the (compound treated) ice cold lysates, and immediately applied to a tyrosine peptide PAMCHIP96. The assay is run on a PAMSTATION96 according to standard procedures: after loading of the plate, solution is pumped once onto the wells, a first exposure is read (150 mSec) and then a kinetic reading program (reading every 5 min for 150 mSec) is run for 60 min. Lysates are run in 6 technical replicates for each condition; replicates are always applied horizontally next to each other to avoid vertical strip effects of the chip.
The data (spot images) are further quantified and linked to the peptide identities using EVOLVE PAMGRID software (PAMGENE). The quantified data are then fit to a curve using CurveFitHT software (PAMGENE) using the Vinip2 curve fitting algorithm, applied on the first 30 min of the assay; the initial velocity is derived at the first kinetic time point read. All subsequent data analyses were done on initial velocities (Vini) using the software packages Omniviz and R (Ihaka, R. and Gentlemen, R. (1996) R: a language for data analysis and graphics. J. Comput. Graph. Stat., 5, 299-314).
After replacing the Vini's lower than 0.1 by 0.1, all Vini's were log 2-transformed to approach normality. […] This test was done for each peptide separately using a mixed model (Littell, R. C., Milliken, G. A., Stroup, W. W., Wolfinger, R. D. 1996. SAS system for mixed models. Cary, N. C.: SAS Institute Inc.) allowing the incorporation of both technical variation (i.e., the variation across replicates) and biological variation (i.e., the variation among the various responding and non-responding cell lines or tumors). Variation between cell lines or tumors in Vini and in treatment effect on Vini was modeled respectively by random intercepts and random compound effects per cell line or tumor, nested in response status. The difference in compound-induced reduction in Vini between responding and non-responding cell lines or tumors was tested through the interaction between compound treatment and response status, both modeled as fixed effects.

COc1cc2ncnc3c2cc1OCCCCCN(C)Cc1ccc(Br)cc1N3 [MTKI, 4,6-ethanediylidenepyrimido[4,5-b][6,1,12]benzoxadiazacyclopentadecine, 17-bromo-8,9,10,11,12,13,14,19-octahydro-20-methoxy-13-methyl-]
ratio of initial velocity of peptide phosphorylation (A431 xenograft tumor lysate, CDK7_157_169_S164): 0.60
ratio of initial velocity of peptide phosphorylation (A431 xenograft tumor lysate, EPHB1_921_933_Y928): 0.39
ratio of initial velocity of peptide phosphorylation (A431 xenograft tumor lysate, FAK1_569_581_Y576/Y577): 0.58
ratio of initial velocity of peptide phosphorylation (A431 xenograft tumor lysate, GSK3B_209_221_Y216): 0.67
ratio of initial velocity of peptide phosphorylation (A431 xenograft tumor lysate, K2C6E_53_65_S59): 0.54
ratio of initial velocity of peptide phosphorylation (A431 xenograft tumor lysate, MBP_259_271_Y261/Y268/S266): 0.60
ratio of initial velocity of peptide phosphorylation (A431 xenograft tumor lysate, MK10_216_228_T221/Y223): 0.60
ratio of initial velocity of peptide phosphorylation (A431 xenograft tumor lysate, NCF1_313_325_S315/S320): 0.66
ratio of initial velocity of peptide phosphorylation (A431 xenograft tumor lysate, NTRK2_699_711_Y702/Y706/Y707): 0.46
ratio of initial velocity of peptide phosphorylation (A431 xenograft tumor lysate, P2AB_297_309_T304/Y307): 0.65
ratio of initial velocity of peptide phosphorylation (A431 xenograft tumor lysate, PGFRB_572_584_Y579/Y581): 0.64
ratio of initial velocity of peptide phosphorylation (A431 xenograft tumor lysate, RAF1_331_343_S337/S338/Y339/Y340): 0.58
ratio of initial velocity of peptide phosphorylation (A431 xenograft tumor lysate, RB_804_816_S807/S811): 0.53
ratio of initial velocity of peptide phosphorylation (A431 xenograft tumor lysate, SYN1_2_14_S9): 0.76
ratio of initial velocity of peptide phosphorylation (A431 xenograft tumor lysate, TYRO3_679_691_Y686): 0.55
ratio of initial velocity of peptide phosphorylation (A431 xenograft tumor lysate, VEGFR2_944_956_Y951): 0.58
ratio of initial velocity of peptide phosphorylation (A431 xenograft tumor lysate, VINC_815_827_Y821): 0.52
ratio of initial velocity of peptide phosphorylation (BT474 xenograft tumor lysate, EPHB1_921_933_Y928): 0.70
ratio of initial velocity of peptide phosphorylation (BT474 xenograft tumor lysate, FAK1_569_581_Y576/Y577): 0.89
ratio of initial velocity of peptide phosphorylation (BT474 xenograft tumor lysate, GSK3B_209_221_Y216): 0.89
ratio of initial velocity of peptide phosphorylation (BT474 xenograft tumor lysate, K2C6E_53_65_S59): 0.80
ratio of initial velocity of peptide phosphorylation (BT474 xenograft tumor lysate, MBP_259_271_Y261/Y268/S266): 0.85
ratio of initial velocity of peptide phosphorylation (BT474 xenograft tumor lysate, MK10_216_228_T221/Y223): 0.83
ratio of initial velocity of peptide phosphorylation (BT474 xenograft tumor lysate, NCF1_313_325_S315/S320): 1.02
ratio of initial velocity of peptide phosphorylation (BT474 xenograft tumor lysate, NTRK2_699_711_Y702/Y706/Y707): 0.77
ratio of initial velocity of peptide phosphorylation (BT474 xenograft tumor lysate, P2AB_297_309_T304/Y307): 0.62
ratio of initial velocity of peptide phosphorylation (BT474 xenograft tumor lysate, PGFRB_572_584_Y579/Y581): 0.75
ratio of initial velocity of peptide phosphorylation (BT474 xenograft tumor lysate, RAF1_331_343_S337/S338/Y339/Y340): 0.94
ratio of initial velocity of peptide phosphorylation (BT474 xenograft tumor lysate, RB_804_816_S807/S811): 0.80
ratio of initial velocity of peptide phosphorylation (BT474 xenograft tumor lysate, SYN1_2_14_S9): 0.96
ratio of initial velocity of peptide phosphorylation (BT474 xenograft tumor lysate, TYRO3_679_691_Y686): 0.84
ratio of initial velocity of peptide phosphorylation (BT474 xenograft tumor lysate, VEGFR2_944_956_Y951): 0.84
ratio of initial velocity of peptide phosphorylation (BT474 xenograft tumor lysate, VINC_815_827_Y821): 0.85
ratio of initial velocity of peptide phosphorylation (DU145 xenograft tumor lysate, CDK7_157_169_S164): 0.96
ratio of initial velocity of peptide phosphorylation (DU145 xenograft tumor lysate, EPHB1_921_933_Y928): 0.81
ratio of initial velocity of peptide phosphorylation (DU145 xenograft tumor lysate, FAK1_569_581_Y576/Y577): 0.72
ratio of initial velocity of peptide phosphorylation (DU145 xenograft tumor lysate, GSK3B_209_221_Y216): 1.07
ratio of initial velocity of peptide phosphorylation (DU145 xenograft tumor lysate, K2C6E_53_65_S59): 0.77
ratio of initial velocity of peptide phosphorylation (DU145 xenograft tumor lysate, MBP_259_271_Y261/Y268/S266): 0.81
ratio of initial velocity of peptide phosphorylation (DU145 xenograft tumor lysate, MK10_216_228_T221/Y223): 0.77
ratio of initial velocity of peptide phosphorylation (DU145 xenograft tumor lysate, NCF1_313_325_S315/S320): 0.97
ratio of initial velocity of peptide phosphorylation (DU145 xenograft tumor lysate, NTRK2_699_711_Y702/Y706/Y707): 0.77
ratio of initial velocity of peptide phosphorylation (DU145 xenograft tumor lysate, P2AB_297_309_T304/Y307): 0.81
ratio of initial velocity of peptide phosphorylation (DU145 xenograft tumor lysate, PGFRB_572_584_Y579/Y581): 0.72
ratio of initial velocity of peptide phosphorylation (DU145 xenograft tumor lysate, RAF1_331_343_S337/S338/Y339/Y340): 0.83
ratio of initial velocity of peptide phosphorylation (DU145 xenograft tumor lysate, RB_804_816_S807/S811): 0.76
ratio of initial velocity of peptide phosphorylation (DU145 xenograft tumor lysate, SYN1_2_14_S9): 0.88
ratio of initial velocity of peptide phosphorylation (DU145 xenograft tumor lysate, TYRO3_679_691_Y686): 0.83
ratio of initial velocity of peptide phosphorylation (DU145 xenograft tumor lysate, VEGFR2_944_956_Y951): 0.95
ratio of initial velocity of peptide phosphorylation (DU145 xenograft tumor lysate, VINC_815_827_Y821): 0.84
